These results are taken from patent US20250304551A1 (SHANGHAI APEIRON THERAPEUTICS COMPANY LIMITED, priority 2022, published 2025).

Test [1] concerns OVCAR3 cells. The test is described as follows: Cell proliferation activity test, OVCAR3 (CyQUANT Direct). It counts as cell-based. The following applies: Homo sapiens, OVCAR-3, 72 h, 3 days incubation, CyQUANT fluorescence detection, read-out: OVCAR-3 Cell Viability_IC50_nM. On the procedure: Materials and Cells: OVCAR3 cells were purchased from Nanjing Cobioer Biosciences Co., Ltd. RPMI-1640 medium, fetal bovine serum, and the CyQUANT Direct Cell Proliferation Assay kit were purchased from Thermo Fisher Scientific, USA; 96-well cell culture plates were sourced from Corning, USA.
Cell Culture: Culture OVCAR3 cells with RPMI-1640 medium containing […] and incubate them in a […] incubator at 37° C. Only cells in the logarithmic growth phase can be used for the test.
Inoculate OVCAR3 cells into a 96-well cell culture plate at 90 μL per well and incubate overnight in a […] incubator at 37° C. Dissolve the compound powder in DMSO to prepare a stock solution of 10 mM. Then perform gradient dilution for the compounds in the microplate to achieve a final concentration of 0-10 μM. Add 10 μL of cell culture medium containing compounds to each well to make the final DMSO content 0.20%. Incubate the cell plates in a […] incubator at 37° C. for 3 days. Add 100 μL of CyQUANT detection reagent to each well, react at 37° C. for 60 min, and perform fluorescence detection using the PerkinElmer Envision.

Test [2] relates to HT29 cells. As to the kind of experiment: CyQuant cell proliferation activity test, HT29. It counts as cell-based. The following applies: Homo sapiens, HT-29, 72 h, HT29 2000 cells per well, 3 days incubation, initial concentration 3000 nM, IC50 by XLFIT, read-out: HT-29 Cell Viability_IC50_nM. On the procedure: Materials and Cells: HT29 cells were purchased from Nanjing Cobioer Biosciences Co., Ltd.; RPM-1640 medium, fetal bovine serum, Trypsin-EDTA (0.25%), DMSO, 96-well plates, and CyQuant reagents were purchased from ThermoFisher (USA).
Cell Culture: Culture HT29 cells with RPMI-1640 containing 10% fetal bovine serum under the condition of 37° C. and 5% CO2. Only cells in the logarithmic growth phase can be used for the test.
Cell Proliferation Activity Test: Use the CyQuant reagent to detect the proliferation inhibitory activity of compounds on HT29 cells. Adjust the cell density and inoculate 100 μL per well into the 96-well plate (HT29 at 2000 cells per well), then incubate overnight under the condition of 37° C. and […]. Add compounds of various target concentrations (initial concentration of 3000 nM, 3-fold dilution, 9 concentration gradients), and make the DMSO content 0.20%. Incubate the cell plates at 37° C. and 5% CO2 for 3 days. Incubate with CyQuant reagent for 1 h, read the plate by Envision, and calculate IC50 using XLFIT.

For test [3], the target named is T1, Human KIF18A (amino acid sequence 1-417) (Homo sapiens, UniProt Q8NI77).
T1 construct: purchased Viva Biotech (Shanghai) Ltd
T1 sequence (Q8NI77 1-417): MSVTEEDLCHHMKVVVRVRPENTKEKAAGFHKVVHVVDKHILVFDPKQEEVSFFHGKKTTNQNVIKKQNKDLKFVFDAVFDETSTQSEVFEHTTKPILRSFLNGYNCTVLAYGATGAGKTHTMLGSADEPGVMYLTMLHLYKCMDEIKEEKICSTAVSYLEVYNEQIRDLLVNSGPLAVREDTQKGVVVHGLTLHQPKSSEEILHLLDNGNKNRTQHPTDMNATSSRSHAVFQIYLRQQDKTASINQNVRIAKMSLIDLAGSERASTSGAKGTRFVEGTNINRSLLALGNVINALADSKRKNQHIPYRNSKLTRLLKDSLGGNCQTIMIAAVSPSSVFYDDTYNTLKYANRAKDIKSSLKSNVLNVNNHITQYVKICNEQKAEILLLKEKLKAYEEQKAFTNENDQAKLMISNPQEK
T1 sequence (Q2XVP4 whole entry partner): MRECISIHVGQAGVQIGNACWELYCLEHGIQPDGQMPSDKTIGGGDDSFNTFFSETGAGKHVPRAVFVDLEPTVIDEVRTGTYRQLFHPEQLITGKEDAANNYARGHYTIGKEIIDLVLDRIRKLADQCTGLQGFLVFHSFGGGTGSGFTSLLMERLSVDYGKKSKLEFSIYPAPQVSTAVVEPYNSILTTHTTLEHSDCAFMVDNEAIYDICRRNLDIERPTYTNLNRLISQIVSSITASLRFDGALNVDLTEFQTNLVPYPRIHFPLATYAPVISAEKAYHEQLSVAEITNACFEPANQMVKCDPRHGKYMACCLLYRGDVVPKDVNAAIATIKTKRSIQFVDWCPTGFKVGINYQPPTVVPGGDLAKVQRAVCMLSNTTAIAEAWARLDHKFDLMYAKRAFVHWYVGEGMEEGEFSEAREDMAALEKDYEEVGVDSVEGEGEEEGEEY
T1 sequence (P02554 whole entry partner): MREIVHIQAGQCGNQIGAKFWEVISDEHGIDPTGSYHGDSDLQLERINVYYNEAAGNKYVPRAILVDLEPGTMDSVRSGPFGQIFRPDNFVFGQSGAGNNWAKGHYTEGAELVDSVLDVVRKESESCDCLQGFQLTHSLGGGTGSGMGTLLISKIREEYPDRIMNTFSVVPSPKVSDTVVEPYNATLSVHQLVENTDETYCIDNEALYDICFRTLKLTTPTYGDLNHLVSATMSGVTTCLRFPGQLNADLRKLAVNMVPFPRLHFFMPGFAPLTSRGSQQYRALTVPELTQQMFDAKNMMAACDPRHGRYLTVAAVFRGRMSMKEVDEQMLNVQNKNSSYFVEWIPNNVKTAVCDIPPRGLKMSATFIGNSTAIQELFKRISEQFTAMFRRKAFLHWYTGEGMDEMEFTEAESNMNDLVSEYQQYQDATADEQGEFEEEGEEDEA
The test is described as follows: Enzyme activity detection experiment (ADP-Glo, KIF18A with tubulin and ATP). It counts as biochemical. The following applies: tubulin 60 μg/mL, ATP 25 μM, KIF18A protein 2.5 nM, 120 minutes at ambient temperature, ADP-Glo chemiluminescence. On the procedure:
Materials: Human KIF18A (amino acid sequence 1-417) was obtained from Viva Biotech (Shanghai) Ltd., and the ADP-Glo™ protein kinase kit was acquired from Promega, USA. Tubulin was sourced from Cytoskeleton, USA, while a 384-well assay plate and the Envision multifunctional microplate reader were obtained from PerkinElmer, USA.
Enzyme activity detection: The compound powder in DMSO was firstly dissolved to prepare a 10 mM stock solution. Next, gradient dilutions were prepared in the microplate to achieve final concentrations of […]. Sequentially, 2.5 μL of tubulin (60 μg/mL), the compound, ATP (25 μM), and KIF18A protein (2.5 nM) were added to each well, and the reaction was incubated at ambient temperature for 120 minutes. After the reaction, 10 μL of ADP-Glo™ reagent was added to each well and incubated at ambient temperature for 30 minutes. Subsequently, 20 μL of detection reagent was added to each well and incubated for an additional 30 minutes in the dark. Finally, chemiluminescence detection was performed using the PerkinElmer Envision multifunctional microplate reader.
(In general: In ADP-Glo the light output rises with the ADP produced.)

The structures appear in SMILES notation.

Regarding `O=S(=O)(CCO)Nc1ccc(C=C(F)c2cc(N3CCC(F)(F)CC3)c3ncccc3c2)c(N2CCC3(CC2)CC3)c1` [Example 1, N-(4-(2-(8-(4,4-difluoropiperidin-1-yl)quinolin-6-yl)-2-fluorovinyl)-3-(6-azaspiro[2.5]octan-6-yl)phenyl)-2-hydroxyethane-1-sulfonamide], the IC50 in test [1] is 474 nM; in test [2], 629 nM; in test [3] it was greater than 3000 nM.

Turning to `O=S(=O)(CCO)Nc1ccc(/C(F)=C/c2cc(N3CCC(F)(F)CC3)c3ncccc3c2)c(N2CCC3(CC2)CC3)c1` [Example 2, (Z)-N-(4-(2-(8-(4,4-difluoropiperidin-1-yl)quinolin-6-yl)-1-fluorovinyl)-3-(6-azasppiro[2.5]octan-6-yl)phenyl)-2-hydroxyethane-1-sulfonamide], the IC50 in test [1] was 766 nM; in test [2], 811 nM; in test [3], greater than 3000 nM.

As to `O=S(=O)(CCO)Nc1ccc(/C(F)=C\c2cc(N3CCC(F)(F)CC3)c3ncccc3c2)c(N2CCC3(CC2)CC3)c1` [Example 3, (E)-N-(4-(2-(8-(4,4-difluoropiperidin-1-yl)quinolin-6-yl)-1-fluorovinyl)-3-(6-azasppiro[2.5]octan-6-yl)phenyl)-2-hydroxyethane-1-sulfonamide], the IC50 is 181 nM in test [1], 210 nM in test [2] and 852 nM in test [3].

Take `Cc1cc(-c2nnc(-c3ccc(NS(=O)(=O)CCO)cc3N3CCC4(CC3)CC4)[nH]2)nc(N2CCC(F)(F)CC2)n1` [Example 4, N-(4-(5-(2-(4,4-difluoropiperidin-1-yl)-6-methylpyrimidin-4-yl)-4H-1,2,4-triazol-3-yl)-3-(6-azaspiro[2.5]octan-6-yl)phenyl)-2-hydroxyethane-1-sulfonamide]: the IC50 in test [1] amounted to 62 nM; in test [2] it was 77 nM; in test [3] it was 38 nM.

For the molecule `Cc1cc(-c2noc(-c3ccc(NS(=O)(=O)CCO)cc3N3CCC4(CC3)CC4)n2)nc(N2CCC(F)(F)CC2)n1` [Example 7], the IC50 in test [1] is 1180 nM; in test [2], greater than 3000 nM; in test [3], 102 nM.

Regarding `Cc1cc(-c2nnn(-c3ccc(NS(=O)(=O)CCO)cc3N3CCC4(CC3)CC4)n2)nc(N2CCC(F)(F)CC2)n1` [Example 8, N-(4-(5-(2-(4,4-difluoropiperidin-1-yl)-6-methylpyrimidin-4-yl)-2H-tetrazol-2-yl)-3-(6-azaspiro[2.5]octan-6-yl)phenyl)-2-hydroxyethane-1-sulfonamide], the IC50 was determined as 496 nM in test [1], 250 nM in test [2] and 775 nM in test [3].

Turning to `Cc1cc(-n2nnc(-c3ccc(NS(=O)(=O)CCO)cc3N3CCC4(CC3)CC4)n2)cc(N2CCC(F)(F)CC2)n1` [Example 9, N-(4-(2-(2-(4,4-difluoropiperidin-1-yl)-6-methylpyridin-4-yl)-2H-tetrazol-5-yl)-3-(6-azaspiro[2.5]octan-6-yl)phenyl)-2-hydroxyethane-1-sulfonamide], the IC50 was found to be 107 nM in test [1], 165 nM in test [2] and 312 nM in test [3].

Take `Cc1cc(-c2cn(-c3ccc(NS(=O)(=O)CCO)cc3N3CCC4(CC3)CC4)cn2)nc(N2CCC(F)(F)CC2)n1` [Example 10, N-(4-(4-(2-(4,4-difluoropiperidin-1-yl)-6-methylpyrimidin-4-yl)-1H-imidazol-1-yl)-3-(6-azaspiro[2.5]octan-6-yl)phenyl)-2-hydroxyethane-1-sulfonamide]: the results for the IC50 in test [1], in test [2] and in test [3] were 46 nM, 56 nM and 251 nM, respectively.

In the case of `COc1cc(-c2cn(-c3ccc(NS(=O)(=O)CCO)cc3N3CCC4(CC3)CC4)cn2)nc(N2CCC(F)(F)CC2)n1` [Example 11, N-(4-(4-(2-(4,4-difluoropiperidin-1-yl)-6-methoxypyrimidin-4-yl)-1H-imidazol-1-yl)-3-(6-azaspiro[2.5]octan-6-yl)phenyl)-2-hydroxyethane-1-sulfonamide], the IC50 was determined as 164 nM in test [1], 319 nM in test [2] and 252 nM in test [3].

As for `Cc1cc(-n2cnc(-c3ccc(NS(=O)(=O)CCO)cc3N3CCC4(CC3)CC4)c2)nc(N2CCC(F)(F)CC2)n1` [Example 12, N-(4-(1-(2-(4,4-difluoropiperidin-1-yl)-6-methylpyrimidin-4-yl)-1H-imidazol-4-yl)-3-(6-azaspiro[2.5]octan-6-yl)phenyl)-2-hydroxyethane-1-sulfonamide], the IC50 in test [1] is 464 nM; in test [2], 568 nM; in test [3], greater than 3000 nM.

As to `Cc1cc(-n2cnc(-c3ccc(NS(=O)(=O)CCO)cc3N3CCC4(CC3)CC4)c2)cc(N2CCC(F)(F)CC2)n1` [Example 13, N-(4-(1-(2-(4,4-difluoropiperidin-1-yl)-6-methylpyridin-4-yl)-1H-imidazol-4-yl)-3-(6-azaspiro[2.5]octan-6-yl)phenyl)-2-hydroxyethane-1-sulfonamide], the results for the IC50 in test [1], in test [2] and in test [3] were 472 nM, 444 nM and 1280 nM, respectively.

Regarding `Cc1cc(-c2nnc(-c3ccc(NS(=O)(=O)CCO)cc3N3CCC4(CC3)CC4)s2)nc(N2CCC(F)(F)CC2)n1` [Example 14, N-(4-(5-(2-(4,4-difluoropiperidin-1-yl)-6-methylpyrimidin-4-yl)-1,3,4-thiadiazol-2-yl)-3-(6-azaspiro[2.5]oct-6-yl)phenyl)-2-hydroxyethane-1-sulfonamide], the IC50 in test [1] came out at 145 nM; in test [2], 88 nM; in test [3], 158 nM.

Turning to `Cc1cc(-c2nnc(-c3ccc(NS(=O)(=O)CCO)cc3N3CCC4(CC3)CC4)o2)nc(N2CCC(F)(F)CC2)n1` [Example 15, N-(4-(5-(2-(4,4-difluoropiperidin-1-yl)-6-methylpyrimidin-4-yl)-1,3,4-oxadiazol-2-yl)-3-(6-azaspiro[2.5]octan-6-yl)phenyl)-2-hydroxyethane-1-sulfonamide], the IC50 in test [1] turned out to be 61 nM; in test [2], 60 nM; in test [3] it was 60 nM.

In the case of `Cc1cc(-c2nnc(-c3ccc(NS(=O)(=O)CCO)cc3N3CCC4(CC3)CC4)o2)nc(NC(C)(C)CO)n1` [Example 16, 2-hydroxy-N-(4-(5-(2-((1-hydroxy-2-methylpropan-2-yl)amino)-6-methylpyrimidin-4-yl)-1,3,4-oxadiazol-2-yl)-3-(6-azaspiro[2.5]octan-6-yl)phenyl)ethane-1-sulfon amide], the IC50 in test [1] was found to be 717 nM; in test [2], 1520 nM; in test [3], 243 nM.

As to `Cc1cc(-c2nnc(-c3ccc(NS(=O)(=O)CCO)cc3N3CCC4(CC3)CC4)o2)nc(N2CCCC(O)C2)n1` (stereo not drawn) [Example 17, 2-hydroxy-N-(4-(5-(2-(3-hydroxypiperidin-1-yl)-6-methylpyrimidin-4-yl)-1,3,4-oxadiazol-2-yl)-3-(6-azaspiro[2.5]octan-6-yl)phenyl)ethane-1-sulfonamide], the IC50 in test [1] came to 74 nM; in test [2] it was 337 nM; in test [3], 46 nM.

In the case of `Cc1cc(-c2nnc(-c3ccc(NS(=O)(=O)CCO)cc3N3CCC4(CC3)CC4)o2)nc(N2CCO[C@H](C)C2)n1` [Example 18, (R)-2-hydroxy-N-(4-(5-(6-methyl-2-(2-methylmorpholino)pyrimidin-4-yl)-1,3,4-oxadiazol-2-yl)-3-(6-azaspiro[2.5]octan-6-yl)phenyl)ethane-1-sulfonamide], the results for the IC50 in test [1], in test [2] and in test [3] were 30 nM, 26 nM and 52 nM, respectively.
